This is an account of results in patent publication US6469166B2, “Thiophenopyrimidines” (Neurocrine Biosciences, Inc., priority 1996, dated 2002).

This assay has as its target T1, human CRF receptors (Homo sapiens, UniProt P34998).
T1 construct: expressed in transfected cells; a membrane suspension of the stably transfected cells was used
T1 sequence (P34998 24-415): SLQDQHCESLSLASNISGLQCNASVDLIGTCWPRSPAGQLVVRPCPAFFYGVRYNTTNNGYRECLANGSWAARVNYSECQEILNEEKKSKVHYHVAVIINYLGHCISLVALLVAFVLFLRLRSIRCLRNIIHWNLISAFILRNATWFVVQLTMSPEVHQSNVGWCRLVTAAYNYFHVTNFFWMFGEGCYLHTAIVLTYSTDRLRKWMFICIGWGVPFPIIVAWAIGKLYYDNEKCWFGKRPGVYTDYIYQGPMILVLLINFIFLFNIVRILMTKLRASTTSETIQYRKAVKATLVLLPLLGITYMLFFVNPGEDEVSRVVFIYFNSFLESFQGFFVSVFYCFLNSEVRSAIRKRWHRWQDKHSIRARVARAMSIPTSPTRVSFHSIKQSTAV
The assay can be described thus: CRF receptor radioligand binding assay ([125I] tyrosine-ovine CRF displacement). The note with it: compounds found to show the best score in this test. How it is done: Compounds were evaluated for binding activity to the CRF receptor by a standard radioligand binding assay as generally described by DeSouza et al. (J. Neutrosci. 7:88-100, 1987). By utilizing various radiolabeled CRF ligands, the assay may be used to evaluate the binding activity of the compounds of the present invention with any CRF receptor subtype. Briefly, the binding assay involves the displacement of a radiolabeled CRF ligand from the CRF receptor. More specifically, the binding assay was performed in 1.5 ml Eppendorf tubes using approximately 1×10^6 cells per tube stably transfected with human CRF receptors. Each tube received about 0.1 ml of assay buffer (e.g., Dulbecco's phosphate buffered saline, 10 mM magnesium chloride, 20 μM bacitracin) with or without unlabeled sauvagine, urotensin I or CRF (final concentration, 1 μM) to determine nonspecific binding, 0.1 ml of [^125I] tyrosine-ovine CRF (final concentration ˜200 pM or approximately the KD as determined by Scatchard analysis) and 0.1 ml of a membrane suspension of cells containing the CRF receptor. […] Following two washes of the pellets, the tubes were cut just above the pellet and monitored in a gamma counter for radioactivity at approximately 80% efficiency. All radioligand binding data were analyzed using a non-linear least-square curve-fitting program. […]

`CCCN(CCC)c1nc(C)nc2c(-c3c(C)cc(C)cc3C)csc12` [Compound 1, 2-methyl-6-(N,N-dipropylamino)-8-(2,4,6-trimethylphenyl)-thiopheno[3,2-d]pyrimidine]: the “score in the CRF receptor binding test” value is recorded as “best score”.
